The target in one test is T1, FLT3-D835Y (Homo sapiens, UniProt P36888, D835Y).
T1 construct: purchased Invitrogen PV3967
T1 sequence (P36888 27-993 D835Y): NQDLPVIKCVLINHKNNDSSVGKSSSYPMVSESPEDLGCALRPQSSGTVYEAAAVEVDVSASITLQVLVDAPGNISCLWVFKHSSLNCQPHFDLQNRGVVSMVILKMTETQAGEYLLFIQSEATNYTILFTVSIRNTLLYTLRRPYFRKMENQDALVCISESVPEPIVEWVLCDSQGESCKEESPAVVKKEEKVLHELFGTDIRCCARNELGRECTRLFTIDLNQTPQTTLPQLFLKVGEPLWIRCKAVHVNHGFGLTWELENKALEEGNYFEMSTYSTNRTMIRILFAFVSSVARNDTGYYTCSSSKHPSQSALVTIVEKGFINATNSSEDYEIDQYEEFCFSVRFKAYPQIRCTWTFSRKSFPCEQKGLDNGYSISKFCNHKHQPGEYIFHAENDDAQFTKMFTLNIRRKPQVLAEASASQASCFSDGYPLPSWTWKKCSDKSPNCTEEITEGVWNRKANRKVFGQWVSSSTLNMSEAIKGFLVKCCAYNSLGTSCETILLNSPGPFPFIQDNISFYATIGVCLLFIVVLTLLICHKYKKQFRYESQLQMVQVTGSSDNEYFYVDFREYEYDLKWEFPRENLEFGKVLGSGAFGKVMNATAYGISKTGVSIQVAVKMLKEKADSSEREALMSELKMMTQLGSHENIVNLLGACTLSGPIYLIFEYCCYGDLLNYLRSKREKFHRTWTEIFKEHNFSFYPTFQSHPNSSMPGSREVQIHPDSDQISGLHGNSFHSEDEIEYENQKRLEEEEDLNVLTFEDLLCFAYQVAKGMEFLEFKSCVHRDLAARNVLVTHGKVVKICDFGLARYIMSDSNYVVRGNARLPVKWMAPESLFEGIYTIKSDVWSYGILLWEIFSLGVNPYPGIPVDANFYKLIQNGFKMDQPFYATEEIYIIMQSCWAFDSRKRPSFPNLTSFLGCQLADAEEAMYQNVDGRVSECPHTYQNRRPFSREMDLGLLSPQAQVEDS
Briefly: AlphaScreen kinase assay with recombinant enzyme, FLT3-D835Y. The format is biochemical. Conditions: 8pt, GMean. The procedure, abridged:
(§1)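 Compounds in DMSO added to enzyme plus biotin-poly(Glu4-Tyr) (30 nM) in assay buffer, then ATP added. Streptavidin donor beads added (20 min, RT), then PY20 acceptor beads (60 min, RT), both at 10 μg/mL final in stop/detection buffer. IC50 conditions: 10 μM FLT3-D835Y/ITD, 100 μM c-KIT.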
(In general: In Alpha technology, singlet oxygen from a donor bead excites a nearby acceptor bead.)

The target in the next test is T2, FLT3-ITD (Homo sapiens, UniProt P36888).
T2 sequence (P36888 1-993): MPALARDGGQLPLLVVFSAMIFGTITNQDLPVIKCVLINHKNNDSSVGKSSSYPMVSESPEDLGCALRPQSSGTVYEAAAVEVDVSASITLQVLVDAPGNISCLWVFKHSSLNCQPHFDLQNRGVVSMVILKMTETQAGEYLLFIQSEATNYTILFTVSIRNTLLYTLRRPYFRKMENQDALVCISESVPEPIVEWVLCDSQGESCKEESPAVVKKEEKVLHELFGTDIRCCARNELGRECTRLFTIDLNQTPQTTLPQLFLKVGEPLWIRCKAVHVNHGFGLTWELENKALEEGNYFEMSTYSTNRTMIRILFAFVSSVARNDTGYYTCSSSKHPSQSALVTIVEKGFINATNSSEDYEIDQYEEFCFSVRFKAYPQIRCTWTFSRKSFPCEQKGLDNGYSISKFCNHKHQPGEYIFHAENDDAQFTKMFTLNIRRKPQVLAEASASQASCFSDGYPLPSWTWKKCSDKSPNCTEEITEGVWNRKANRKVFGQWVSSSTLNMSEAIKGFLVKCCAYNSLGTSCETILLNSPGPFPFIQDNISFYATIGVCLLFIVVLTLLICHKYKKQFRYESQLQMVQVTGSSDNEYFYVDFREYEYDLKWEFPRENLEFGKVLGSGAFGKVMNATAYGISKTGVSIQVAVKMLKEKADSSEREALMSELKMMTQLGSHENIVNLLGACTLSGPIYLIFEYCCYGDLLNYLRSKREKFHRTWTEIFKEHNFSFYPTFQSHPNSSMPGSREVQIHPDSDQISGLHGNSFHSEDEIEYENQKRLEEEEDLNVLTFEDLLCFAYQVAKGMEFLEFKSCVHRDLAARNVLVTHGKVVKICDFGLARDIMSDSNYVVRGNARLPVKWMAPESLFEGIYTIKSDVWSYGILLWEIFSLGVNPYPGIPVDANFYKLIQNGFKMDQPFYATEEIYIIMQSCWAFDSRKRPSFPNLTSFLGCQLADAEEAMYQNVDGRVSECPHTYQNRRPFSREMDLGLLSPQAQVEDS
Briefly: AlphaScreen kinase assay with recombinant enzyme, FLT3-ITD. Format: biochemical. Conditions: 8pt; read-out: FLT3_ITD 8pt: IC50. The method in brief: as §1

For `CC(C)(C#N)NC(=O)c1cccc(-c2cnc3[nH]c(C#Cc4ccccc4)cc3c2)n1` [Compound P-0176, N-(1-cyano-1-methyl-ethyl)-6-[2-(2-phenylethynyl)-1H-pyrrolo[2,3-b]pyridin-5-yl]pyridine-2-carboxamide], the IC50 at FLT3-D835Y and on FLT3-ITD was 0.0001 to 10 µM each time.
Turning to `Cn1cncc1C#Cc1cc2cc(-c3cccc(C(=O)NC(C)(C)C#N)n3)cnc2[nH]1` [Compound P-0177, N-(1-cyano-1-methyl-ethyl)-6-[2-[2-(3-methylimidazol-4-yl)ethynyl]-1H-pyrrolo[2,3-b]pyridin-5-yl]pyridine-2-carboxamide], the IC50 on FLT3-D835Y and on FLT3-ITD was 0.0001 to 10 µM in each case.
Take `Cc1cc(C#N)ccc1-c1cc2cc(-c3cccc(C(=O)N4CCC(C#N)C4)n3)cnc2[nH]1` (centres unmarked) [Compound P-0130, 1-[6-[2-(4-cyano-2-methyl-phenyl)-1H-pyrrolo[2,3-b]pyridin-5-yl]pyridine-2-carbonyl]pyrrolidine-3-carbonitrile]: the IC50 on FLT3-D835Y and on FLT3-ITD was 0.0001 to 10 µM throughout.
Take `CC1(C)CC=C(c2cc3cc(-c4cccc(C(=O)N5CCC(C#N)C5)n4)cnc3[nH]2)CC1` (centres unmarked) [Compound P-0131, 1-[6-[2-(4,4-dimethylcyclohexen-1-yl)-1H-pyrrolo[2,3-b]pyridin-5-yl]pyridine-2-carbonyl]pyrrolidine-3-carbonitrile]: the IC50 on FLT3-D835Y and on FLT3-ITD was 0.0001 to 10 µM each time.
In the case of `Cc1cc(-c2cc3cc(-c4cccc(C(=O)NC(C)(C)C#N)n4)cnc3[nH]2)cnn1` [Compound P-0163, N-(1-cyano-1-methyl-ethyl)-6-[2-(6-methylpyridazin-4-yl)-1H-pyrrolo[2,3-b]pyridin-5-yl]pyridine-2-carboxamide], the IC50 at FLT3-D835Y and on FLT3-ITD was 0.0001 to 10 µM in each case.
As for `O=C(c1cccc(-c2cnc3[nH]c(-c4ccccc4)cc3c2)n1)N1CCC(n2ccnc2)C1` (centres unmarked) [Compound P-0097, (3-imidazol-1-ylpyrrolidin-1-yl)-[6-(2-phenyl-1H-pyrrolo[2,3-b]pyridin-5-yl)-2-pyridyl]methanone], the IC50 at FLT3-D835Y and on FLT3-ITD was 0.0001 to 10 µM each time.
Regarding `N#CC1CCN(C(=O)c2cccc(-c3cnc4[nH]c(C5=CCOCC5)cc4c3)n2)C1` (centres unmarked) [Compound P-0132, 1-[6-[2-(3,6-dihydro-2H-pyran-4-yl)-1H-pyrrolo[2,3-b]pyridin-5-yl]pyridine-2-carbonyl]pyrrolidine-3-carbonitrile], the IC50 on FLT3-D835Y and at FLT3-ITD was 0.0001 to 10 µM throughout.
`N#CC1(NC(=O)c2cccc(-c3cnc4[nH]c(-c5ccccc5)c(Cl)c4c3)n2)CC1` [Compound P-0139, 6-(3-chloro-2-phenyl-1H-pyrrolo[2,3-b]pyridin-5-yl)-N-(1-cyanocyclopropyl)pyridine-2-carboxamide]: the IC50 at FLT3-D835Y and at FLT3-ITD was 0.0001 to 10 µM throughout.
Regarding `CC(C)(C#N)NC(=O)c1cccc(-c2cnc3[nH]c(-c4cnn(Cc5ccccc5)c4)cc3c2)n1` [Compound P-0171, 6-[2-(1-benzylpyrazol-4-yl)-1H-pyrrolo[2,3-b]pyridin-5-yl]-N-(1-cyano-1-methyl-ethyl)pyridine-2-carboxamide], the IC50 at FLT3-D835Y and on FLT3-ITD was 0.0001 to 10 µM in each case.
As to `CC(C)(C#N)CNC(=O)c1cccc(-c2cnc3[nH]c(C4=CCCCC4)cc3c2)n1` [Compound P-0123, N-(2-cyano-2-methyl-propyl)-6-[2-(cyclohexen-1-yl)-1H-pyrrolo[2,3-b]pyridin-5-yl]pyridine-2-carboxamide], the IC50 at FLT3-D835Y and at FLT3-ITD was 0.0001 to 10 µM each time.
In the case of `CC(C)(C#N)NC(=O)c1cccc(-c2cnc3[nH]c(-c4ccc(C5CC5)cc4)cc3c2)n1` [Compound P-0189, N-(1-cyano-1-methyl-ethyl)-6-[2-(4-cyclopropylphenyl)-1H-pyrrolo[2,3-b]pyridin-5-yl]pyridine-2-carboxamide], the IC50 on FLT3-D835Y and at FLT3-ITD was 0.0001 to 10 µM in each case.
With `CC(C)(C#N)NC(=O)c1cccc(-c2cnc3[nH]c(-c4ccc(C5CC5)nc4)cc3c2)n1` [Compound P-0168, N-(1-cyano-1-methyl-ethyl)-6-[2-(6-cyclopropyl-3-pyridyl)-1H-pyrrolo[2,3-b]pyridin-5-yl]pyridine-2-carboxamide], the IC50 at FLT3-D835Y and on FLT3-ITD was 0.0001 to 10 µM throughout.
Consider `CN[C@@H]1CCN(C(=O)c2ccc(-c3cnc4[nH]c(-c5ccccc5)cc4c3)s2)C1` [Compound P-0106, [(3R)-3-(methylamino)pyrrolidin-1-yl]-[5-(2-phenyl-1H-pyrrolo[2,3-b]pyridin-5-yl)-2-thienyl]methanone], for which the IC50 on FLT3-D835Y and on FLT3-ITD was 0.0001 to 10 µM throughout.
In the case of `COc1cc(-c2cc3cc(-c4cccc(C(=O)NCC(C)(C)C#N)n4)cnc3[nH]2)ccn1` [Compound P-0154, N-(2-cyano-2-methyl-propyl)-6-[2-(2-methoxy-4-pyridyl)-1H-pyrrolo[2,3-b]pyridin-5-yl]pyridine-2-carboxamide], the IC50 on FLT3-D835Y and on FLT3-ITD was 0.0001 to 10 µM throughout.
`CC(C)(C#N)NC(=O)c1cccc(-c2cnc3[nH]c(-c4cnn(C5CCOC5)c4)cc3c2)n1` (centres unmarked) [Compound P-0173, N-(1-cyano-1-methyl-ethyl)-6-[2-(1-tetrahydrofuran-3-ylpyrazol-4-yl)-1H-pyrrolo[2,3-b]pyridin-5-yl]pyridine-2-carboxamide]: the IC50 on FLT3-D835Y and on FLT3-ITD was 0.0001 to 10 µM in each case.
As to `N#CC1(NC(=O)c2cccc(-c3cnc4[nH]c(-c5ccccc5)cc4c3)n2)CCCC1` [Compound P-0146, N-(1-cyanocyclopentyl)-6-(2-phenyl-1H-pyrrolo[2,3-b]pyridin-5-yl)pyridine-2-carboxamide], the IC50 on FLT3-D835Y and at FLT3-ITD was 0.0001 to 10 µM each time.
With `CC(C)(C#N)CNC(=O)c1cccc(-c2cnc3[nH]c(C4=CCSCC4)cc3c2)n1` [Compound P-0159, N-(2-cyano-2-methyl-propyl)-6-[2-(3,6-dihydro-2H-thiopyran-4-yl)-1H-pyrrolo[2,3-b]pyridin-5-yl]pyridine-2-carboxamide], the IC50 at FLT3-D835Y and at FLT3-ITD was 0.0001 to 10 µM throughout.
`N#CCCNC(=O)c1cccc(-c2cnc3[nH]c(-c4ccccc4)c(I)c3c2)n1` [Compound P-0143, N-(2-cyanoethyl)-6-(3-iodo-2-phenyl-1H-pyrrolo[2,3-b]pyridin-5-yl)pyridine-2-carboxamide]: the IC50 on FLT3-D835Y and at FLT3-ITD was 0.0001 to 10 µM each time.
For `N#CC1CCN(C(=O)c2cccc(-c3cnc4[nH]c(C5=CCN(C(=O)C6CC6)C5)cc4c3)n2)C1` (centres unmarked) [Compound P-0136, 1-[6-[2-[1-(cyclopropanecarbonyl)-2,5-dihydropyrrol-3-yl]-1H-pyrrolo[2,3-b]pyridin-5-yl]pyridine-2-carbonyl]pyrrolidine-3-carbonitrile], the IC50 on FLT3-D835Y and at FLT3-ITD was 0.0001 to 10 µM in each case.

These data come from US9938273B2 (Plexxikon Inc., priority 2015, dated 2018).
